Data from patent EP0415999B1, “COMPOSITIONS HAVING USE AS TREATMENT OF PSORIASIS AND NEUROP[…]” (THE UNITED STATES OF AMERICA as represented by the …, priority 1988, dated 1998).

Test system: volunteers who tested negative or HIV antibodies
Test: Overall neuropsychologic and clinical observations during seven-day peptide administration
Format: in vivo, human
Protocol: As indicated in the Table, symptoms of substance abuse, childhood dyslexia and depression were ameliorated. The peptide having the formula: [formula] was given at dosage of 0.033 mg/kg/da to 0.133 mg/kg/da for seven days. As indicated in the Table, the unexpected effects observed in these volunteers who tested negative or HIV antibodies were the following: • 1. […] This effect maintained for one month of follow-up.

## C[C@@H](N)C(=O)N[C@@H](CO)C(=O)N[C@H](C(=O)N[C@H](C(=O)N[C@H](C(=O)N[C@@H](CC(N)=O)C(=O)N[C@@H](Cc1ccc(O)cc1)C(=O)N[C@H](C(N)=O)[C@@H](C)O)[C@@H](C)O)[C@@H](C)O)[C@@H](C)O [Peptide T]
0.033 mg/kg/da to 0.133 mg/kg/da for seven days, remitted after Peptide T was discontinued
  scores on memory and attention components of standard neuropsychologic tests: Incremental scores
All subjects, while on drug, did not continue after drug discontinuance
  physical activity: increases in physical activity
All subjects, effect abated off drug
  fatigue, energy and vigor (reported by subjects): decreased fatigue and increased energy and vigor
Two research volunteers with prior histories of depression, effect maintained for one month of follow-up
  mood scores on depression scales: Improved mood scores
